Assay results as given in the OPERA property sets (Mansouri et al. 2018).
Converted amounts (≈) assume the structure as drawn.

## Cc1nc2c(c(=O)[nH]c(=O)n2C)n1C
  solubility: 286 mM (≈ 55600 µg/mL)

## CC(C)COC(=O)c1c(C(=O)O)cccc1[N+](=O)[O-]
20 °C
  solubility: 0.898 mM (≈ 240 µg/mL)

## CC(C)(OC1CCCCC1)C(=O)O
20 °C
  solubility: 83.2 mM (≈ 15500 µg/mL)

## O=C(O)c1ccc2ncccc2c1
25 °C
  solubility: 900 mM (≈ 156000 µg/mL)

## CC(C)Cc1nnc(NS(=O)(=O)c2ccc(N)cc2)s1
20 °C
  solubility: 0.15 mM (≈ 47 µg/mL)

## CC1(C)OC(=O)c2cc3ccccc3cc21
  solubility: 1.04 mM (≈ 220 µg/mL)

## O=CC(O)C(O)C(O)[C@H](O)C(O)CO (stereo in doubt)
20 °C
  solubility: 476 mM (≈ 100000 µg/mL)

## CC(=O)NCCNC(C)=O
25 °C
  solubility: 4740 mM (≈ 683000 µg/mL)

## O=C1CCCCCCCN1
22 °C
  solubility: 4290 mM (≈ 606000 µg/mL)

## CCCCC(=O)NCCNC(=O)CCCC
25 °C
  solubility: 15.3 mM (≈ 3500 µg/mL)

## Cc1cnnc2c(O)cccc12
20 °C
  solubility: 2.1 mM (≈ 336 µg/mL)

## Oc1ccc(-c2ccccc2)cc1O
  solubility: 8.59 mM (≈ 1600 µg/mL)

## CN1C(=O)C(N)C(=S)N(C)C1=O (configuration not stated)
  solubility: 76.4 mM (≈ 14300 µg/mL)

## C=CCc1ccc(O)c(O)c1
26 °C
  solubility: 166 mM (≈ 25000 µg/mL)

## Nc1cc([N+](=O)[O-])ccc1O
23 °C
  solubility: 6 mM (≈ 925 µg/mL)

## O=C(Cc1ccccc1)c1ccc(O)cc1
  solubility: 31.6 mM (≈ 6700 µg/mL)

## O=C(O)CNC(=S)SCC(=O)O
25 °C
  solubility: 50 mM (≈ 10500 µg/mL)

## COc1c(C(=O)O)cccc1C(=O)O
20 °C
  solubility: 5.1 mM (≈ 1000 µg/mL)

## CCCCCCCCOC(=O)C(C)O (configuration not stated)
25 °C
  solubility: 53.4 mM (≈ 10800 µg/mL)

## CC(C)=NNC(N)=O
20 °C
  solubility: 540 mM (≈ 62200 µg/mL)

## O=C(NCCc1c[nH]cn1)c1ccccc1
  solubility: 232 mM (≈ 50000 µg/mL)

## Cc1ccc(P(=O)(O)O)c(C)c1
20 °C
  solubility: 80.6 mM (≈ 15000 µg/mL)

## CC(N)C(O)C(=O)O (configuration not stated)
25 °C
  solubility: 443 mM (≈ 52800 µg/mL)

## CSc1ncnc2nccnc12
20 °C
  solubility: 4.32 mM (≈ 769 µg/mL)

## C[C@@H](O)CCCC=O
  solubility: 344 mM (≈ 40000 µg/mL)

## CCCC(=O)OCCOCCOCCOC(=O)CCC
  solubility: 27.6 mM (≈ 8000 µg/mL)

## C=CCCCN=C=S
20 °C
  solubility: 1.26 mM (≈ 160 µg/mL)

## CC=C(CCCC)C(=O)NC(N)=O
20 °C
  solubility: 1.63 mM (≈ 300 µg/mL)

## CN[C@@H](Cc1ccc(O)cc1)C(=O)O
20 °C
  solubility: 7.37 mM (≈ 1440 µg/mL)

## CC(C)C[C@H](NC=O)C(=O)O (racemic)
25 °C
  solubility: 185 mM (≈ 29500 µg/mL)

## CC(C)[C@@H](O)C#N
25 °C
  solubility: 2020 mM (≈ 200000 µg/mL)

## Cc1cc(N)n(-c2ccccc2)n1
  solubility: 115 mM (≈ 20000 µg/mL)

## CC(=O)C(=Cc1ccccc1)CC(=O)O
  solubility: 24.5 mM (≈ 5000 µg/mL)

## CNC(CC(C)C)C(=O)O (stereo in doubt)
25 °C
  solubility: 306 mM (≈ 44400 µg/mL)

## CC(=O)/C(=N/O)c1ccccc1
20 °C
  solubility: 4.29 mM (≈ 700 µg/mL)

## O=c1[nH]c(=O)c2cc([N+](=O)[O-])cc([N+](=O)[O-])c2[nH]1
23 °C
  solubility: 0.623 mM (≈ 157 µg/mL)

## Nc1ccc(S(=O)(=O)c2ccc(Cl)cc2)cc1
25 °C
  solubility: 0.0747 mM (≈ 20 µg/mL)

## OCc1cccc(CO)c1
25 °C
  solubility: 585 mM (≈ 80800 µg/mL)

## CCCCCCCCS(=O)(=O)NS(=O)(=O)CCCCCCCC
30 °C
  solubility: 0.122 mM (≈ 45 µg/mL)

## O=C(O)C=CCCC(=O)O
  solubility: 62.4 mM (≈ 9000 µg/mL)

## COc1ccc(OC)c([N+](=O)[O-])c1
  solubility: 0.764 mM (≈ 140 µg/mL)

## CC(C)C=CCC(=O)O
  solubility: 71 mM (≈ 9100 µg/mL)

## CCN1CC(=O)N=C1N
25 °C
  solubility: 684 mM (≈ 87000 µg/mL)

## CCOC(=S)SC(CC(=O)O)C(=O)O (configuration not stated)
25 °C
  solubility: 101 mM (≈ 24100 µg/mL)

## NC(=O)CBr
20 °C
  solubility: 1160 mM (≈ 160000 µg/mL)

## O=C(NNC(=O)c1ccccc1)c1ccccc1
25 °C
  solubility: 25.8 mM (≈ 6200 µg/mL)

## CC1=CCCN1C
  solubility: 1340 mM (≈ 130000 µg/mL)

## O=C1OCc2ccc(I)cc21
25 °C
  solubility: 0.615 mM (≈ 160 µg/mL)

## CC(C)(O)CC(C)(O)c1cccc2ccccc12 (configuration not stated)
20 °C
  solubility: 0.573 mM (≈ 140 µg/mL)

## C=CC(O)C(=O)OCC (configuration not stated)
  solubility: 2310 mM (≈ 300000 µg/mL)

## CC(=O)CC1=NCCS1
20 °C
  solubility: 69.8 mM (≈ 10000 µg/mL)

## CCOC(C)C(=O)C=O (configuration not stated)
  solubility: 699 mM (≈ 91000 µg/mL)

## CN1C(=O)COc2ccccc21
20 °C
  solubility: 7.17 mM (≈ 1170 µg/mL)

## Cc1nc2c(=O)[nH]c(=O)n(C)c2nc1C
20 °C
  solubility: 7.71 mM (≈ 1590 µg/mL)

## CCCCOCCOCCOC(N)=O
  solubility: 487 mM (≈ 100000 µg/mL)

## O=C(O)c1ccc(F)c([N+](=O)[O-])c1
25 °C
  solubility: 26.2 mM (≈ 4860 µg/mL)

## Ic1ccc2c(c1)Sc1ccccc1N2
20 °C
  solubility: 0.000118 mM (≈ 0.0384 µg/mL)

## N#CCCNC(CCC(=O)O)C(=O)O (configuration not stated)
26 °C
  solubility: 49.9 mM (≈ 10000 µg/mL)

## CCCCOP(=O)(OC)OCCCC
25 °C
  solubility: 31.7 mM (≈ 7100 µg/mL)

## COC(=O)CNC(=O)c1ccccc1
30 °C
  solubility: 88 mM (≈ 17000 µg/mL)

## C[C@@H](N)C(C)(C)C
25 °C
  solubility: 9690 mM (≈ 980000 µg/mL)

## CCCCCCCCCCNC(=O)c1cccnc1
25 °C
  solubility: 0.838 mM (≈ 220 µg/mL)

## CCCCCCCCCCCCNC(=O)c1cccnc1
25 °C
  solubility: 0.62 mM (≈ 180 µg/mL)

## CCCCCCCCOC(=O)c1cccnc1
25 °C
  solubility: 0.807 mM (≈ 190 µg/mL)

## CCC1OCCO1
  solubility: 1960 mM (≈ 200000 µg/mL)

## CCC1(CC)OC(=O)c2ccccc21
25 °C
  solubility: 1.37 mM (≈ 260 µg/mL)

## CCCC(C)(O)CCC
25 °C
  solubility: 25.9 mM (≈ 3370 µg/mL)

## CCCCCSS(=O)CCCCC (configuration not stated)
  solubility: 0.674 mM (≈ 150 µg/mL)

## O=S(=O)(O)c1ccc(/N=N/c2c(O)ccc3ccccc23)c2ccccc12
  solubility: 68.7 mM (≈ 26000 µg/mL)

## CC1NC(=O)CNC1=O (configuration not stated)
  solubility: 1950 mM (≈ 250000 µg/mL)

## CCCCCCOC(=O)CCOCC
25 °C
  solubility: 1.48 mM (≈ 300 µg/mL)

## Cc1ccc(S(=O)(=O)N(Cl)Cl)cc1
25 °C
  solubility: 0.342 mM (≈ 82.1 µg/mL)

## O=CC(=O)Cc1ccccc1
20 °C
  solubility: 6.75 mM (≈ 1000 µg/mL)

## C[Si](C)(C)CN
  solubility: 17.3 mM (≈ 1790 µg/mL)

## CC(C)C(Br)C(=O)N[C@@H](C)C(=O)O (mixture of isomers)
  solubility: 329 mM (≈ 83000 µg/mL)

## CC=CC(=O)Nc1ccc(O)cc1
20 °C
  solubility: 2.26 mM (≈ 400 µg/mL)

## O=[N+]([O-])Cc1ccc2ccccc2n1
20 °C
  solubility: 8.82 mM (≈ 1660 µg/mL)

## CNC(=O)N(C)C(=O)CC#N
25 °C
  solubility: 1480 mM (≈ 230000 µg/mL)

## CCCCCS
20 °C
  solubility: 1.5 mM (≈ 156 µg/mL)

## COP(=S)(OC)SSP(=S)(OC)OC
25 °C
  solubility: 0.04 mM (≈ 12.6 µg/mL)

## Cc1nc2c(=O)n(C)c(=O)n(C)c2nc1C
20 °C
  solubility: 45.4 mM (≈ 10000 µg/mL)

## O=Cc1cccc(C(=O)O)c1O
24 °C
  solubility: 3.61 mM (≈ 600 µg/mL)
